Usually IC50 stands for the midpoint of a concentration-inhibition curve.

A value given as a limit tells only on which side of the number the result lay.

Data on 23 molecules can be found in US20260174778A1, “SULFONAMIDE COMPOUND, AND PREPARATION METHOD THEREFOR AND USE THEREOF” (SHANGHAI HENLIUS BIOTECH, INC., priority 2023, published 2026).

The subject of this test is breast cancer cell line ZR-75-1. Kind of test: Inhibition of proliferation of breast cancer cell line ZR-75-1 (CellTiter-Glo). The conditions noted are these: Homo sapiens, 240 h, proliferation of ZR-75-1 cells, 10 days of incubation, read-out: IC50 (KAT6A). The test is classed as cell-based. The text has this: Test Example 1: Experiment for Determining Inhibitory Effects of Compounds on Proliferation of Breast Cancer Cell Line ZR-75-1
ATP is an indicator of the metabolism of living cells. The CellTiter-Glo® Luminescent Cell Viability Assay is a homogeneous assay method for determining the number of viable cells by quantifying ATP.
• 1) ZR-75-1 (Cell Bank of Chinese Academy of Sciences, TCHul26) • 2) RPMI-1640 medium (Gibco, 11875-093) • 3) Fetal Bovine Serum, New Zealand (Gibco,10091-148) • 4) Penicillin-streptomycin (10,000 U/mL) (Gibco, 15140-122) • 5) Trypsin-EDTA (0.25%), containing phenol red (Gibco, 25200-072) • 6) DPBS (Shanghai BasalMedia, B210KJ) • 7) Corning® 96-well Clear Flat Bottom Ultra-Low Attachment Microplate (Corning, Cat. No. 3474) • 8) 330 μL 96 Holes Deep Well Plate, transparents, 96 Round Holes, V-shaped Bottom, Low Retention (Stellar Scientific, DP33VR-9-NS) • 9) Corning® 96-well solid white flat-bottom polystyrene microplate (Corning, Cat. No. 3917) • 10) CellTiter-Glo® Luminescent Cell Viability Assay (Promega, G7573) • 11) Countstar® BioMed automatic cell counter • 12) Trypan blue solution, 0.4% (Gibco, Cat. No. 15250061) • 13) 37° C. constant-temperature incubator (Thermo, FORMA STERI-CYCLE i160 LK) • 14) Biosafety cabinet (Thermo, 1379)
• 1) The formula of the complete medium for ZR-75-1 was as follows: 500 mL RPMI-1640+10% FBS+1% penicillin-streptomycin. • 2) Thirty minutes before cell plating, the complete medium, serum, trypsin, and DPBS for use in ZR-75-1 cell culture were pre-warmed in a water bath at 37° C. • 3) The ZR-75-1 cells were taken out of the incubator, and the medium was removed by pipetting. The cells were rinsed once with 5 mL of DPBS, and then the DPBS was discarded. • 4) The cells in the T75 culture flask were digested with 1-3 mL of (0.25%) trypsin-EDTA. After the trypsin was added, the culture flask was incubated in an incubator at 37° C. for 2-5 min, and dispersion was confirmed by microscopic examination. Tapping or agitating the culture flask was avoided to prevent disturbing the cells, which might cause cell clumping. • 5) 9 mL of the complete medium was added to terminate the digestion, thus forming a cell suspension, which was then mixed well by pipetting. • 6) Cell suspension counting: 20 μL of the cell suspension was pipetted and diluted with 20 µL of the 0.4% trypan blue solution (Gibco, Cat. No. 15250061). The total cell count and the percentage of cell viability were determined using the Countstar® BioMed automatic cell counter. Only cells with a cell viability of no less than 95% were used for the experiment. • 7) The concentration of the cell suspension was adjusted to 2000 cells/well, and the cell suspension was added to a 96-well cell culture plate at 80 μL/well. Treatment of Cells with Compounds • 1) Twenty-four hours after cell plating, the cell plate was taken out. • 2) Each compound was prepared with a complete medium. The stock solution was a 10 mM solution in DMSO, which was first diluted with the medium to 100 μM, then diluted to 1 μM, and finally subjected to a 5-fold serial dilution across a total of 9 concentration gradients. • 3) 20 μL of the compound diluted with the medium was added to each well of the cell culture plate, which already contained 80 μL of the medium. The final concentration started at 200 nM, followed by a 5-fold serial dilution across a total of 9 concentration gradients. Two replicate wells were set for each compound, and each plate could be used to test 3 compounds, with the DMSO content controlled within 0.5%. • 4) The culture medium was replenished once every three days with a complete medium containing the same concentration of the test compound, with 20 μL/well added each time.
After 10 days of incubation with the compound, the cell culture plate was taken out, and the CellTiter-Glo® reagent was added at 50 μL/well. […]
As to `COc1cccc(OC)c1S(=O)(=O)Nc1nsc2cc(Cn3cccn3)cc(OC)c12` [Compound 24, N-(6-((1H-Pyrazol-1-yl)methyl)-4-methoxybenzo[d]isothiazol-3-yl)-2,6-dimethoxybenzenesulfonamide], the IC50 lay within 10 to 50 nM.

Regarding `COc1cccc(OC)c1S(=O)(=O)Nc1nsc2cc(Cn3cccn3)ccc12` [Compound 25, N-(6-((1H-Pyrazol-1-yl)methyl)benzo[d]isothiazol-3-yl)-2,6-dimethoxybenzenesulfonamide], the IC50 is no less than 50 nM.

As for `COc1ccc2c(c1S(=O)(=O)Nc1noc3cc(Cn4cccn4)cc(OC)c13)OCCC21CCCC1` [Compound 26, N-(6-((1H-Pyrazol-1-yl)methyl)-4-methoxybenzo[d]isoxazol-3-yl)-7-methoxyspiro[chromane-4,1′-cyclopentane]-8-sulfonamide], the IC50 is less than 0.5 nM.

Turning to `COc1ccc2c(c1S(=O)(=O)Nc1noc3cc(Cn4cccn4)c(F)c(OC)c13)OCCC2(C)C` [Compound 27, N-(6-((1H-Pyrazol-1-yl)methyl)-5-fluoro-4-methoxybenzo[d]isoxazol-3-yl)-7-methoxy-4,4-dimethylchromane-8-sulfonamide], the IC50 was less than 0.5 nM.

On to `COc1ccc2c(c1S(=O)(=O)Nc1noc3cc(Cn4cccn4)c(Cl)c(OC)c13)OCCC2(C)C` [Compound 29, N-(6-((1H-Pyrazol-1-yl)methyl)-5-chloro-4-methoxybenzo[d]isoxazol-3-yl)-7-methoxy-4,4-dimethylchromane-8-sulfonamide], for which the half-maximal inhibitory concentration (IC50) lay in the range of 10 to 50 nM.

As for `COc1ccc2c(c1S(=O)(=O)Nc1noc3cc(Cn4cccn4)c(Cl)c(OC)c13)OCCO2` [Compound 30, N-(6-((1H-Pyrazol-1-yl)methyl)-5-chloro-4-methoxybenzo[d]isoxazol-3-yl)-6-methoxy-2,3-dihydrobenzo[b][1,4]dioxine-5-sulfonamide], the half-maximal inhibitory concentration (IC50) was in the range of 10 to 50 nM.

`COc1ccc2c(c1S(=O)(=O)Nc1noc3cc(Cn4cccn4)c(F)c(Cl)c13)OCCC2(C)C` [Compound 31, N-(6-((1H-Pyrazol-1-yl)methyl)-4-chloro-5-fluorobenzo[d]isoxazol-3-yl)-7-methoxy-4,4-dimethylchromane-8-sulfonamide]: the IC50 fell in the range of 0.5 to 2 nM.

Take `COc1ccc2c(c1S(=O)(=O)Nc1noc3cc(Cn4cccn4)c(F)c(Cl)c13)OCCO2` [Compound 32, N-(6-((1H-Pyrazol-1-yl)methyl)-4-chloro-5-fluorobenzo[d]isoxazol-3-yl)-6-methoxy-2,3-dihydrobenzo[b][1,4]dioxine-5-sulfonamide]: the IC50 was in the range of 2 to 10 nM.

With `COc1ccc2c(c1S(=O)(=O)Nc1noc3cc(Cn4cccn4)cc(Cl)c13)OCCC2(C)C` [Compound 33, N-(6-((1H-Pyrazol-1-yl)methyl)-4-chlorobenzo[d]isoxazol-3-yl)-7-methoxy-4,4-dimethylchromane-8-sulfonamide], the half-maximal inhibitory concentration (IC50) was in the range of 0.5 to 2 nM.

For the molecule `COc1ccc2c(c1S(=O)(=O)Nc1noc3cc(Cn4cccn4)cc(Cl)c13)OCCO2` [Compound 34, N-(6-((1H-Pyrazol-1-yl)methyl)-4-chlorobenzo[d]isoxazol-3-yl)-6-methoxy-2,3-dihydrobenzo[b][1,4]dioxine-5-sulfonamide], the 50% inhibitory concentration (IC50) lay within 2 to 10 nM.

Turning to `COc1ccc2c(c1S(=O)(=O)Nc1noc3cc(Cn4cccn4)cc(OC)c13)OCCC21CC1` [Compound 35, N-(6-((1H-Pyrazol-1-yl)methyl)-4-methoxybenzo[d]isoxazol-3-yl)-7-methoxyspiro[chromane-4,1′-cyclopropane]-8-sulfonamide], the half-inhibitory concentration (IC50) was less than 0.5 nM.

For the molecule `COc1ccc2c(c1S(=O)(=O)Nc1noc3cc(Cn4cccn4)cc(OC)c13)OCCC2O` (centres unmarked) [Compound 36, N-(6-((1H-Pyrazol-1-yl)methyl)-4-methoxybenzo[d]isoxazol-3-yl)-4-hydroxy-7-methoxychromane-8-sulfonamide], the half-inhibitory concentration (IC50) is less than 0.5 nM.

On to `COc1ccc2c(c1S(=O)(=O)Nc1noc3cc(Cn4cccn4)cc(OC)c13)OCCC2=O` [Compound 37, N-(6-((1H-Pyrazol-1-yl)methyl)-4-methoxybenzo[d]isoxazol-3-yl)-7-methoxy-4-oxochromane-8-sulfonamide], for which the IC50 is less than 0.5 nM.

As to `COc1ccc2c(c1S(=O)(=O)Nc1noc3cc(Cn4cccn4)cc(OC)c13)OCCC2(C)O` (centres unmarked) [Compound 38, N-(6-((1H-Pyrazol-1-yl)methyl)-4-methoxybenzo[d]isoxazol-3-yl)-4-hydroxy-7-methoxy-4-methylchromane-8-sulfonamide], the half-inhibitory concentration (IC50) is less than 0.5 nM.

With `COc1ccc2c(c1S(=O)(=O)Nc1noc3cc(Cn4cccn4)cc(OC)c13)OCCC21SCCS1` [Compound 39, N-(6-((1H-Pyrazol-1-yl)methyl)-4-methoxybenzo[d]isoxazol-3-yl)-7-methoxyspiro[chromane-4,2′-[1,3]dithiolane]-8-sulfonamide], the concentration for half-maximal inhibition (IC50) was less than 0.5 nM.

As for `COc1ccc2c(c1S(=O)(=O)Nc1noc3cc(Cn4cccn4)cc(OC)c13)OCCN2C` [Compound 41, N-(6-((1H-Pyrazol-1-yl)methyl)-4-methoxybenzo[d]isoxazol-3-yl)-7-methoxy-4-methyl-3,4-dihydro-2H-benzo[b][1,4]oxazine-8-sulfonamide], the IC50 lay in the range of 0.5 to 2 nM.

Regarding `COc1ccc2c(c1S(=O)(=O)Nc1noc3cc(Cn4cccn4)c(F)c(OC)c13)OCCC21CC1` [Compound 43, N-(6-((1H-Pyrazol-1-yl)methyl)-5-fluoro-4-methoxybenzo[d]isoxazol-3-yl)-7-methoxyspiro[chromane-4,1′-cyclopropane]-8-sulfonamide], the concentration for half-maximal inhibition (IC50) was less than 0.5 nM.

As for `COc1ccc2c(c1S(=O)(=O)Nc1noc3cc(Cn4cccn4)c(F)c(OC)c13)OCCC21SCCS1` [Compound 44, N-(6-((1H-Pyrazol-1-yl)methyl)-5-fluoro-4-methoxybenzo[d]isoxazol-3-yl)-7-methoxyspiro[chromane-4,2′-[1,3]dithiolane]-8-sulfonamide], the IC50 was less than 0.5 nM.

On to `COc1ccc2c(c1S(=O)(=O)Nc1noc3cc(Cn4cccn4)cc(Cl)c13)OCCC2=O` [Compound 45, N-(6-((1H-Pyrazol-1-yl)methyl)-4-chlorobenzo[d]isoxazol-3-yl)-7-methoxy-4-oxochromane-8-sulfonamide], for which the IC50 lay within 2 to 10 nM.

For the molecule `COc1ccc2c(c1S(=O)(=O)Nc1noc3cc(Cn4cccn4)cc(Cl)c13)OCCC21CC1` [Compound 46, N-(6-((1H-Pyrazol-1-yl)methyl)-4-chlorobenzo[d]isoxazol-3-yl)-7-methoxyspiro[chromane-4,1′-cyclopropane]-8-sulfonamide], the concentration for half-maximal inhibition (IC50) lay in the range of 2 to 10 nM.

For `COc1ccc2c(c1S(=O)(=O)Nc1noc3cc(Cn4cccn4)cc(Cl)c13)OCCC21SCCS1` [Compound 47, N-(6-((1H-Pyrazol-1-yl)methyl)-4-chlorobenzo[d]isoxazol-3-yl)-7-methoxyspiro[chromane-4,2′-[1,3]dithiolane]-8-sulfonamide], the IC50 lay within 0.5 to 2 nM.

Regarding `COc1ccc2c(c1S(=O)(=O)Nc1noc3cc(Cn4cccn4)c(F)c(Cl)c13)OCCC2=O` [Compound 48, N-(6-((1H-Pyrazol-1-yl)methyl)-4-chloro-5-fluorobenzo[d]isoxazol-3-yl)-7-methoxy-4-oxochromane-8-sulfonamide], the half-inhibitory concentration (IC50) was 0.5 to 2 nM.

Consider `COc1ccc2c(c1S(=O)(=O)Nc1noc3cc(Cn4cccn4)c(F)c(Cl)c13)OCCC21CC1` [Compound 49, N-(6-((1H-Pyrazol-1-yl)methyl)-4-chloro-5-fluorobenzo[d]isoxazol-3-yl)-7-methoxyspiro[chromane-4,1′-cyclopropane]-8-sulfonamide], for which the IC50 is 2 to 10 nM.
